Laboratory results from patent US20240352145A1, “EFFICACY OF ANTI-TROP-2-SN-38 ANTIBODY DRUG CONJUGATES FOR THERAPY OF TUMORS RELAPSED/REFRACTORY TO CHECKPOINT INHIBITORS” (Immunomedics, Inc., priority 2016, published 2024).
Several values for one entry are separate records, joined by “and”; a condition that tells them apart may be missing. Identical values can stand only once. Like-named read-outs stand apart in the source and are kept apart here.

Assays:
TNBC = type: in vivo, human
Procedure: Medical History—The patient is a person who was first diagnosed in October 2007 with a 1.8 cm mass in their right breast. They underwent a right mastectomy with a sentinel node biopsy (no malignancy in nodes). The tumor was determined to be negative for ER, PR and Her-2 (i.e., TNBC). They proceeded with 4 cycles of AC (doxorubicin and cyclophosphamide) therapy, followed by weekly low dose paclitaxel (×12). […] They had local surgery to remove the node and then received XRT (radiation therapy) through March 2009. In June 2010 CT documented recurrent pulmonary and bone involvement. The patient enrolled in a clinical trial using AVASTIN® (bevacizumab), METMAB® (onartuzumab, […]), and TAXOL® (paclitaxel), which they were maintained on until March 2013, having a complete response, but eventual progression of peripheral lung nodule and node in AP (aortopulmonary) window. In September 2014, they started on PD-L1 antibody (MPDL3280A) for 6 cycles, but progressed in January 2015.
2015 at a dose of 10 mg/kg, and has continued to receive this dose without reduction or delay in planned schedule now for 40+ doses.

NCI-N87 = test: Cytotoxicity (MTS), Example 6, NCI-N87; type: cell-based, human; conditions: NCI-N87, 96 h
Procedure: One day prior to adding the ADCs, cells were harvested from tissue culture and plated into 96-well plates. […] Plates were incubated at 37° C. for 96 h. […] Growth inhibition was measured as a percent of growth relative to untreated cells using Microsoft Excel and Prism software (non-linear regression to generate sigmoidal dose response curves which yield IC50-values.

[1] = tested on: metastatic epithelial tumors; test: Phase I trial of sacituzumab govitecan (25 patients); type: in vivo, human
Procedure: The trial was designed as a standard 3+3 Phase I design, starting at a dose of 8 mg/kg per injection, with dosages given weekly for 2 weeks in a 3-week treatment cycle.
Prior to the start of each infusion, most patients received acetaminophen, anti-histamines (H1 and H2 blockers), and dexamethasone. Prophylactic use of antiemetics or anti-diarrheal medications was prohibited. Therapy consisted of 2 consecutive doses given on days 1 and 8 of a 3-week treatment cycle, with the intent to allow patients to continue treatment for up to 8 cycles (i.e., 16 treatments) unless there was unacceptable toxicity or progression. Patients showing disease stabilization or response after 8 cycles could continue treatments.
The maximum tolerated dose (MTD) was judged on the patient's tolerance to the first treatment cycle.

PARP = test: Immunoblotting, apoptosis signaling, NCI-N87 and BxPC-3; type: cell-based, human; conditions: evident at 24 h, increased at 48 h
Procedure: Immunoblotting—Cells (2×10^6) were plated in 6-well plates overnight. […] Parental hRS7 was used as a control for the ADC. Cells were lysed in buffer containing 10 mM Tris, pH 7.4, 150 mM NaCl, protease inhibitors and phosphatase inhibitors (2 mM […], 10 mM NaF). A total of 20 μg protein was resolved in a 4-20% SDS polyacrylamide gel, transferred onto a nitrocellulose membrane and blocked by 5% non-fat milk in 1×TBS-T (Tris-buffered saline, 0.1% Tween-20) for 1 h at room temperature. Membranes were probed overnight at 4° C. with primary antibodies followed by 1-h incubation with antirabbit secondary antibody (1:2500) at room temperature. Signal detection was done using a chemiluminescence kit (Supersignal West Dura, Thermo Scientific; Rockford, IL) with the membranes visualized on a Kodak Image Station […]. Primary antibodies p21Waf1/Cip1 (Cat. No. 2947), Caspase-3 (Cat. No. 9665), Caspase-7 (Cat. No. 9492), Caspase-9 (Cat. No. 9502), PARP (Cat. No. 9542), 3-actin (Cat. No. 4967), pJNK1/2 (Cat. No. 4668), JNK (Cat. No. 9258), and goat anti-rabbit-HRP secondary antibody (Cat. No. 7074) were obtained from Cell Signal Technology (Danvers, MA).

[2] = tested on: BXPC3 model of human pancreatic cancer; conditions: mouse, in vivo, sc
[3] = mouse, in vivo
COLO 205 = test: In vitro cytotoxicity, COLO 205
Description: (§1) Cell lines, antibodies, and chemotherapeutics—All human cancer cell lines used in this study were purchased from the American Type Culture Collection.

SK-MES-1 = test: In vitro cytotoxicity, SK-MES-1
Description: as §1

[4] = update of on-going trial, 17 TNBC patients

IMMU-132
Best Response, shrinkage (TNBC; 10 mg/kg): 54%
Best Response (TNBC; 10 mg/kg, patient progressed after PD-L1 therapy): Partial response, confirmed
decrease in sum of target lesion diameters (TNBC; CT 7 Apr. 2015, first assessment): 33%
decrease in sum of target lesion diameters (TNBC; CT 13 Sep. 2015): 52%
decrease in sum of target lesion diameters (TNBC; CT 15 November): 54%
decrease in sum of target lesion diameters (TNBC; CT 18 May 2015): 48%
decrease in sum of target lesion diameters (TNBC; CT 19 Jul. 2015): 50%
decrease in sum of target lesion diameters (TNBC; CT 25 Feb. 2016): 46%
time to progression (TNBC; not reached): ≥ 12.4 months
IC50 (NCI-N87): 3.6 nM
Delay/adjustment 1st cycle, patients ([1]; 8 mg/kg, 7 patients treated): 1
Dose-limiting toxicity 1st cycle, patients ([1]; 8 mg/kg, 7 patients treated): 0
patients with grade-3 diarrhea ([1]; 10 mg/kg dose level): 1
Delay/adjustment 1st cycle, patients ([1]; 10 mg/kg, 6 patients treated): 0
Dose-limiting toxicity 1st cycle, patients ([1]; 10 mg/kg, 6 patients treated): 0
Delay/adjustment 1st cycle, patients ([1]; 12 mg/kg, 9 patients treated): 5
Dose-limiting toxicity 1st cycle, patients ([1]; 12 mg/kg, 9 patients treated, listed as sacituzumab govitecan): 0/9 and 0
Delay/adjustment 1st cycle, patients ([1]; 18 mg/kg, 3 patients treated): 2
median time to progression ([1]; 24 patients): 3.6 months
time to progression, range ([1]; 24 patients): 1-12.8 months
febrile neutropenia, patients ([1]; 25 patients): 2
long-term survival (15-20 months) ([1]; 25 patients): ~25%
patients with >30% reduction of target lesions ([1]; 25 patients): 12%
patients with SD ([1]; 25 patients): 60%
free SN-38 as share of total SN-38, average ([1]; 28 30-min serum samples from 7 patients, HPLC): 2.91±0.91%
infusion-related adverse events ([1]; 297 infusions over 2-3 h): no infusion-related adverse events
adverse event possibly related to treatment ([1]; GC patient #9, 1 dose of 10 mg/kg): grade 3 febrile neutropenia
progressed (PD) as best response, patients ([1]; RECIST 1.1): 7
partial responses, patients ([1]; RECIST 1.1, 25 patients): 3
stable disease as best response, patients ([1]; RECIST 1.1, 25 patients, listed as Sacituzumab govitecan): 15
stable disease as best response, patients ([1]; RECIST 1.1, 25 patients, listed as sacituzumab govitecan): Fifteen
tumor shrinkage ([1]; SCLC patient who failed prior topoisomerase I inhibitor therapy): 38%
median time to progression ([1]; advanced pancreatic ductal cancer, N=7): 2.9 months
tumor shrinkage ([1]; colon cancer patient who failed prior topoisomerase I inhibitor therapy): 13%
intact conjugate in trough serum samples ([1]; drawn immediately before next dose): no sacituzumab govitecan could be detected
antibody response to hRS7 IgG or SN-38 ([1]; multiple cycles for up to 12 months): no antibody response to the hRS7 IgG or SN-38 was detected
reduction in target lesions ([1]; patient 10, CRC, 5 doses of 10 mg/kg): 23%
maximum reduction in target lesions ([1]; patient 10, CRC, after 18 doses): 28%
plasma CEA ([1]; patient 10, CRC, baseline 38.5 ng/mL): 1.6 ng/mL
time to progression ([1]; patient 18, TNBC): 45 weeks
reduction in target lesions ([1]; patient 18, TNBC, after 3 doses): 13%
reduction in target lesions ([1]; patient 18, TNBC, after 16 doses): 19%
period until progression ([1]; patient 20, HRPC, 34 treatments): 12.7 months
period of SD ([1]; patient 25, esophageal cancer, 18 then 13.5 mg/kg): 30 weeks
period of disease stabilization ([1]; patient #11, PDC): 15 weeks
CA19-9 serum titer ([1]; patient #11, PDC, 10 mg/kg, after 8 doses, baseline 5880): 2840 units/mL
SN-38 bound to the IgG ([1]; patient #25, 13.5 mg/kg): 96.8%
free SN-38, average ([1]; patient #25, 13.5 mg/kg): 105.4 ± 47.7 ng/mL
free SN-38G as share of total SN-38+SN-38G ([1]; patient #25, 13.5 mg/kg): 11.6%
free SN-38G, average ([1]; patient #25, 13.5 mg/kg): 13.9 ± 4.1 ng/mL
total SN-38, average ([1]; patient #25, 13.5 mg/kg, 11 peak acid-hydrolyzed samples): 3309.8 ± 601.8 ng/mL
Free SN-38G ([1]; patient #25, 18 mg/kg): 26.2 ng/mL
free SN-38 (non-hydrolyzed sample) ([1]; patient #25, 18 mg/kg): 155.2 ng/mL
free SN-38G as share of total unbound SN-38+SN-38G ([1]; patient #25, 18 mg/kg): 14.4%
free SN-38 as share of total ([1]; patient #25, 18 mg/kg): 3.0%
total SN-38 (acid-hydrolyzed sample) ([1]; patient #25, 18 mg/kg): 5,089 ng/mL
SN-38G as share of free SN-38 levels in serum ([1]; patients): 20-40%
median time to progression ([1]; patients with SD or PR (N=18)): 4.1 months
time to progression, range ([1]; patients with SD or PR (N=18)): 2.6-12.8 months
patients with response or disease stabilization ([1]; patients with prior topoisomerase I inhibitor): 7 of 9
SN-38 in serum bound to IgG ([1]; peak samples, 30 min after infusion): > 96%
time to progression from onset of therapy ([1]; responder with SCLC): 2.9 months
time to progression from onset of therapy ([1]; responder with TNBC): 4.3 months
time to progression from onset of therapy ([1]; responder with colon cancer): 7.1 months
reduction of target lesions ([1]; two of nine patients with prior topoisomerase-I inhibitor therapy, listed as sacituzumab govitecan): 28% and 38%
clinical benefit rate (PR+SD≥6 months) [1, 4]: 46%
overall response rate (PR) [1, 4]: 29%
PARP cleavage (PARP): mediated PARP cleavage
therapeutic efficacy [2]: better therapeutic efficacy than control treatments
clearance vs unconjugated IgG [3]: no significant difference in the clearance
IC50 (COLO 205): 1.95 nM
IC50 (SK-MES-1): 23.1 nM
